Target: T1, Xeroderma pigmentosum type B (XPB) (Homo sapiens, UniProt P19447)
T1 sequence (P19447 1-782): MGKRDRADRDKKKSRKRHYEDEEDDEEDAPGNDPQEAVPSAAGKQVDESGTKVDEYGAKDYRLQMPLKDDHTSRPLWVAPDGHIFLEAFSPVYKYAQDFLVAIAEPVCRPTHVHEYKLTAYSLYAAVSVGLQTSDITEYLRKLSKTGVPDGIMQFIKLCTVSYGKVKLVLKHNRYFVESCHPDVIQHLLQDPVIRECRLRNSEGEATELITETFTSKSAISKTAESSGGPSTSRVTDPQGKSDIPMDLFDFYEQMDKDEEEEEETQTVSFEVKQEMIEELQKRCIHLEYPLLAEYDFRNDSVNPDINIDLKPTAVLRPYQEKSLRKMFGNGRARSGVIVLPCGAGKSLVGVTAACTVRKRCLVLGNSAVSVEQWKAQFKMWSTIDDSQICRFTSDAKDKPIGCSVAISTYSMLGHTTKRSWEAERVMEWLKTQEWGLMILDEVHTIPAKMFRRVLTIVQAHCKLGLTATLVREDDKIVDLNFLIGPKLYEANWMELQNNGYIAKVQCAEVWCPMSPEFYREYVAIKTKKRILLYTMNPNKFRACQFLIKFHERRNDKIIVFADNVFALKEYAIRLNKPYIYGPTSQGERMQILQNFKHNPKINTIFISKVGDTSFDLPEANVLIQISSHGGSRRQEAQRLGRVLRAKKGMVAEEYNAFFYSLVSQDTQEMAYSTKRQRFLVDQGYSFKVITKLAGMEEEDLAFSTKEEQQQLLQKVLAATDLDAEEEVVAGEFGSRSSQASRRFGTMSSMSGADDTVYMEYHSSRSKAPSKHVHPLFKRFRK
Assay: live-cell covalent labelling, click to TAMRA, in-gel fluorescence
Format: cell-based

triptolide-alkyne [TL-alk]
EC50: 92.6 nM
